Patent publication US6667307B2, “Sulfonylalkanoylamino hydroxyethylamino sulfonamide retroviral protease inhibitors” (G.D. Searle & Co., priority 1995, dated 2003)

What was measured:
[1] = target: T1, HIV protease (Human immunodeficiency virus type 1 group M subtype B, UniProt P04585); assay: HIV protease enzyme assay (fluorescence, peptide substrate); assay type: biochemical; settings: HIV protease 12.3 nanomolar, substrate 80 μM, pH 6.4, ambient temperature
T1 construct: final enzyme concentration of 12.3 nanomolar, based on a molecular weight of 10,780
From the text: The compounds of the present invention are effective HIV protease inhibitors. Utilizing an enzyme assay as described below, the compounds set forth in the examples herein disclosed inhibited the HIV enzyme. The preferred compounds of the present invention and their calculated IC50 (inhibiting concentration 50%, i.e., the concentration at which the inhibitor compound reduces enzyme activity by 50%) values are shown in Table 9. The enzyme method is described below. The substrate is 2-Ile-Nle-Phe(p-NO2)-Gln-ArgNH2. The positive control is MVT-101 (Miller, M. et al, Science, 2, 1149 (1989)) The assay conditions are as follows:
20 mM sodium phosphate, pH 6.4
The above described substrate is dissolved in DMSO, then diluted 10 fold in assay buffer. Final substrate concentration in the assay is 80 μM. HIV protease is diluted in the assay buffer to a final enzyme concentration of 12.3 nanomolar, based on a molecular weight of 10,780.
The final concentration of DMSO is 14% and the final concentration of glycerol is 18%. The test compound is dissolved in DMSO and diluted in DMSO to 10× the test concentration; 10 μl of the enzyme preparation is added, the materials mixed and then the mixture is incubated at ambient temperature for 15 minutes. The enzyme reaction is initiated by the addition of 40 μl of substrate. The increase in fluorescence is monitored at 4 time points (0, 8, 16 and 24 minutes) at ambient temperature. Each assay is carried out in duplicate wells.

[2] = test system: HIV-1 in CEM cells; assay: CEM cell assay: HIV inhibition in acutely infected cells (tetrazolium/MTT colorimetric); assay type: cell-based; settings: Human immunodeficiency virus 1, CCRF-CEM, 168 h, CEM cells acutely infected with HIV-1, 7 days, MTT readout
Experimental: The effectiveness of various compounds were determined in the above-described enzyme assay and in a CEM cell assay. The HIV inhibition assay method of acutely infected cell infected cells is an automated tetrazolium based colorimetric assay essentially that reported by Pauwles et al, J. Virol. Methods, 20 ≡, 309-321 (1988). Assays were performed in 96-well tissue culture plates. CEM cells, a CD4^+ cell line. were grown in RPMI-1640 medium (Gibco) supplemented with a 10% fetal calf serum and were then treated with polybrene (2 μg/ml). An 80 μl volume of medium containing 1×10^4 cells was dispensed into each well of the tissue culture plate. To each well was added a 100 μl volume of test compound dissolved in tissue culture medium (or medium without test compound as a control) to achieve the desired final concentration and the cells were incubated at 37° C. for 1 hour. A frozen culture of HIV-1 was diluted in culture medium to a concentration of 5×10^4 TCID50 per ml (TCID50=the dose of virus that infects 50% of cells in tissue culture), and a 20 μL volume of the virus sample (containing 1000 TCID50 of virus) was added to wells containing test compound and to wells containing only medium (infected control cells). Several wells received culture medium without virus (uninfected control cells). Likewise, the intrinsic toxicity of the test compound was determined by adding medium without virus to several wells containing test compound. In summary, the tissue culture plates contained the following experiments: [table] In experiments 2 and 4 the final concentrations of test compounds were 1, 10, 100 and 500 μg/ml. Either azidothymidine (AZT) or dideoxyinosine (ddI) was included as a positive drug control. […] DMSO was added to all control wells at an appropriate concentration. Following the addition of virus, cells were incubated at 37° C. in a humidified, 5% CO2 atmosphere for 7 days. Test compounds could be added on days 0, 2 and 5 if desired. On day 7, post-infection, the cells in each well were resuspended and a 100 μl sample of each cell suspension was removed for assay. A 20 μL volume of a 5 mg/ml solution of 3-(4,5-dimethylthiazol-2-yl)-2,5-diphenyltetrazolium bromide (MTT) was added to each 100 μL cell suspension, and the cells were incubated for 4 hours at […] in a 5% CO2 environment. […] To each sample was added 100 μl of 10% sodium dodecylsulfate in 0.01 N HCl to lyse the cells, and samples were incubated overnight. The absorbance at 590 nm was determined for each sample using a Molecular Devices microplate reader. Absorbance values for each set of wells is compared to assess viral control infection, uninfected control cell response as well as test compound by cytotoxicity and antiviral efficacy.

CC(C)CN(C[C@@H](O)[C@H](Cc1ccccc1)NC(=O)[C@H](C)C[S+](C)[O-])S(=O)(=O)c1ccc2c(c1)OCO2 (single isomer, unassigned) [Entry 6]
IC50 [1]: 7 nM

CC(C)CN(C[C@@H](O)[C@H](Cc1ccccc1)NC(=O)[C@H](C)CS(C)(=O)=O)S(=O)(=O)c1ccc2c(c1)OCO2 [Entry 1]
IC50 [1]: 2 nM | EC50 [2]: 20 nM

CC(C)CN(C[C@@H](O)[C@H](Cc1ccccc1)NC(=O)[C@H](C)CS(C)(=O)=O)S(=O)(=O)c1ccc2c(c1)CCO2 [Entry 2]
IC50 [1]: 2 nM | EC50 [2]: 28 nM

CC(C)CN(C[C@@H](O)[C@H](Cc1ccccc1)NC(=O)[C@H](C)CS(C)(=O)=O)S(=O)(=O)c1ccc2ncsc2c1 [Entry 3]
IC50 [1]: 3 nM | EC50 [2]: 26 nM

CC(C)CN(C[C@@H](O)[C@H](Cc1ccccc1)NC(=O)[C@H](C)CS(C)(=O)=O)S(=O)(=O)c1ccc2c(c1)OCCO2 [Entry 4]
IC50 [1]: 2 nM | EC50 [2]: 12 nM

CC(C)CN(C[C@@H](O)[C@H](Cc1ccccc1)NC(=O)[C@H](C)C[S+](C)[O-])S(=O)(=O)c1ccc2c(c1)OCO2 (stereo partly drawn) [Entry 5]
IC50 [1]: 2 nM | EC50 [2]: 52 nM

CC(C)CN(C[C@@H](O)[C@H](Cc1ccccc1)NC(=O)[C@H](C)CS(C)(=O)=O)S(=O)(=O)c1ccc2c(c1)OCO2 [Example 47, N-[2R-hydroxy-3-[(2-methylpropyl)[(1,3-benzodioxol-5-yl)sulfonyl]amino]-1S-(phenylmethyl)propyl]-2S-methyl-3-(methylsulfonyl)propanamide]
melting point: 131.8 to 133.8 °C
